Source: patent US10077261B2, “Imidazolin-5-one derivative useful as FASN inhibitors for the treatment of cancer” (Janssen Pharmaceutica NV, priority 2012, dated 2018)

What was measured:
[1] = molecular target: Fatty Acid Synthase Keto-reductase Domain (FASN KR) (Homo sapiens, UniProt P49327); assay: Fatty Acid Synthase keto-reductase domain (FASN KR) inhibition, NADPH oxidation at 340 nm
Method: After 20 minutes incubation at room temperature the plate was measured again (T2).
The decrease in absorbance was calculated as (Absorbance before incubation T1)−(Absorbance following incubation T2).
A plot of Controlmin versus test compound concentration was fitted to a 4-parameter logistic curve using a non-linear least squares regression method.

A2780 ovarian cells [2] = assay: A2780 ovarian cell proliferation assay in lipid reduced medium, without palmitate (MTT); format: cell-based; conditions: Homo sapiens, A2780, 96 h; read-out: pIC50 A2780 Ovarian Cell, Without Palmitate (converted)
[3] = molecular target: T1, hFASN enzyme (full length) (Homo sapiens, UniProt P49327); assay: Fatty Acid Synthase (FASN) inhibition scintillation proximity assay; format: biochemical; conditions: for inhibition at 10 µM: read-out: Human FASN % inhibition @ 10 μM, 10 μM test compound; for IC50: read-out: Human FASN pIC50 (converted)
T1 construct: 10 μL hFASN enzyme (full length, 300 ng, purified in house); made in house
In short: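 Full-length in-house purified enzyme (300 ng) was tested in 100 mM KH2PO4 pH 7.5, 1 mM DTT with ³H-acetyl-CoA and malonyl-CoA as substrates; compounds ranged 0.01–30 μM. Reactions were stopped with streptavidin imaging beads, read by LEADseeker at 610 nm, and fitted to a 4-parameter logistic curve.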

A2780 ovarian cells [4] = assay: A2780 ovarian cell proliferation assay in lipid reduced medium, with palmitate (MTT); format: cell-based; conditions: Homo sapiens, A2780, 96 h; read-out: pIC50 A2780 Ovarian Cell, With Palmitate (converted)
In short: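 Seeded cells were switched next day to lipid-reduced serum, exposed to compound and 25 μM palmitate complexed with fatty-acid-free BSA, and incubated 96 h. Proliferation was then determined by MTT absorbance at 544 nm, with a best-fit curve of signal against concentration.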

[5] = tested on: PC-3M-Luc-C6 prostate cells; assay: In vitro PC-3M-Luc-C6 prostate cell proliferation assay in lipid reduced medium; format: cell-based; conditions: 96 h, read-out: pIC50 PC-3M-Luc-C6 prostate cell (converted)
[6] = tested on: LNCaP-Vancouver prostate cells; assay: In vitro LNCaP Vancouver prostate cell proliferation assay in lipid reduced medium; format: cell-based; conditions: read-out: pIC50 LNCaP_Vancouver prostate cell (converted)

T1 sequence (P49327 whole entry): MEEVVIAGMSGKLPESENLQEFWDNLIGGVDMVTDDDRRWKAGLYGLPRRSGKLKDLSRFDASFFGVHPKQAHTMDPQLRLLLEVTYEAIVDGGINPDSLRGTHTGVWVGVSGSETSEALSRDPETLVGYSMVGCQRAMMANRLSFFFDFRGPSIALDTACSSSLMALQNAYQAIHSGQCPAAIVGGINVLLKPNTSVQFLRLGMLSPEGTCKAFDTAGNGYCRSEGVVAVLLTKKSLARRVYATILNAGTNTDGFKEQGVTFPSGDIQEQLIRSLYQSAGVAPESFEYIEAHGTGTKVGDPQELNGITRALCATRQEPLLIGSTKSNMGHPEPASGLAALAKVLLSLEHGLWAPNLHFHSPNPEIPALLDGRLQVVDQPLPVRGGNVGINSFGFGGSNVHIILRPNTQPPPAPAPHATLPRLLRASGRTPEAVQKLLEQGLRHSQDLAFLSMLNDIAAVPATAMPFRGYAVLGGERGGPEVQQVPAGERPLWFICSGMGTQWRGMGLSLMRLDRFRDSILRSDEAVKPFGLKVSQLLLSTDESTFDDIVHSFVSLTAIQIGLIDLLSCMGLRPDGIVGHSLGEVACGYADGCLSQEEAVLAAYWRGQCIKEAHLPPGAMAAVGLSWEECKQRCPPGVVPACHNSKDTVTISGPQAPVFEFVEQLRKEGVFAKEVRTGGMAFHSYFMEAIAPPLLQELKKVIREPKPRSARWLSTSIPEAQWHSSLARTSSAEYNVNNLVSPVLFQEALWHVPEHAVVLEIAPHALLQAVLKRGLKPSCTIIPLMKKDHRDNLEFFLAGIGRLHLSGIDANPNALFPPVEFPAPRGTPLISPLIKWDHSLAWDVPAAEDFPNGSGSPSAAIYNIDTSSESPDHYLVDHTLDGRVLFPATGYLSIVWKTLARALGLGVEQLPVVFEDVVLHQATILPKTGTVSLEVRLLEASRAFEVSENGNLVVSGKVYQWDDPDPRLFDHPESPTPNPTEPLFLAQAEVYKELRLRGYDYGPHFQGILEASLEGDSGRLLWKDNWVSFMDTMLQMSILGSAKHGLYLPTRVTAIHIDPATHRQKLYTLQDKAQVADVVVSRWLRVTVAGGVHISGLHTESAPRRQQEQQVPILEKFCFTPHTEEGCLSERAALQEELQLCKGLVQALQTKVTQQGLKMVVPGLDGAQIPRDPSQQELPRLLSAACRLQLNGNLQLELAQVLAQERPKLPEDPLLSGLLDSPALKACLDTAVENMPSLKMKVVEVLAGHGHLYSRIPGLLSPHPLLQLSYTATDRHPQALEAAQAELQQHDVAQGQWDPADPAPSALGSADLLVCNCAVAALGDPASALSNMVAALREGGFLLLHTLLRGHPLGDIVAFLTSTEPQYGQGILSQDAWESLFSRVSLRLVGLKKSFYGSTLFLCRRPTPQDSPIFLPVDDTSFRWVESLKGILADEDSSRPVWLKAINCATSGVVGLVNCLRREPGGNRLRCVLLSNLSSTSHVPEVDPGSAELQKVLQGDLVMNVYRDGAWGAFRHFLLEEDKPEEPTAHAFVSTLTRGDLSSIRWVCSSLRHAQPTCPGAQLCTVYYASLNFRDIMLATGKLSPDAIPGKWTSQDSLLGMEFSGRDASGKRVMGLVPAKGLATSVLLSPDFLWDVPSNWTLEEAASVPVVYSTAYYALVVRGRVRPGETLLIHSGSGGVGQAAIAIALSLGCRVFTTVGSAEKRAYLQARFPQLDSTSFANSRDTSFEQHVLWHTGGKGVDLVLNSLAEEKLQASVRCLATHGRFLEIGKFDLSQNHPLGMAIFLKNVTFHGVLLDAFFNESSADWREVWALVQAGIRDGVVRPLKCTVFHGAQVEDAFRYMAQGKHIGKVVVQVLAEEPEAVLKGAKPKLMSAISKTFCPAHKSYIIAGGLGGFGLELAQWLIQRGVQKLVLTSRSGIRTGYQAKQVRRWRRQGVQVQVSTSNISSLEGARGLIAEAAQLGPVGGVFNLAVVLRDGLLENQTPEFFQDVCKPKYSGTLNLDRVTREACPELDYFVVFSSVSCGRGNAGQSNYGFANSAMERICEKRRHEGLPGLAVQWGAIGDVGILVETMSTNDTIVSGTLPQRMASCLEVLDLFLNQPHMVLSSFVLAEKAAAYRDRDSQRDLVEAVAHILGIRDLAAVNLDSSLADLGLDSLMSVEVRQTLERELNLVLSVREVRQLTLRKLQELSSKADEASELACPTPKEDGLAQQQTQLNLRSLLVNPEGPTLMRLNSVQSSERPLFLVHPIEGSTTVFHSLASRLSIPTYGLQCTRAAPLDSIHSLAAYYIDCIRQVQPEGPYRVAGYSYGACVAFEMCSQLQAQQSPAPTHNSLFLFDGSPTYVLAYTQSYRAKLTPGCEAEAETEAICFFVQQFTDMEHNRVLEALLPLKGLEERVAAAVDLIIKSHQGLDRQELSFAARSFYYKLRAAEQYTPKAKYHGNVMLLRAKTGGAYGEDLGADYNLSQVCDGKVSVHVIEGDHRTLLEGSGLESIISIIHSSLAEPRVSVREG
Chain of Fatty Acid Synthase Keto-reductase Domain (FASN KR) (P49327 whole entry, the tested form may be a part): as the sequence (P49327 whole entry) above

SMILES	IC50 [1]	IC50 (A2780 ovarian cells [2])	inhibition at 10 µM [3]	IC50 [3]	IC50 (A2780 ovarian cells [4])	IC50 [5]	IC50 [6]
Cc1cc(-c2ccc3c(c2)ncn3C)ccc1C1=NC2(CC2)C(=O)N1CC1CN(C(=O)C2(C)CC2)C1 [compound 627, 6-({1-[(1-Methylcyclopropyl)carbonyl]azetidin-3-yl}methyl)-5-[2-methyl-4-(1-methyl-1H-benzimidazol-5-yl)phenyl]-4,6-diazaspiro[2.4]hept-4-en-7-one]	126 nM	12 nM	105%	107 nM	> 10000 nM	47.9 nM	~129 nM
Cc1cc(-c2ccc3cc(C#N)ccc3c2)ccc1C1=NC2(CC2)C(=O)N1CC1CN(C(=O)C2(O)CC2)C1 [compound 272, 6-(4-(6-((1-(1-hydroxycyclopropanecarbonyl)azetidin-3-yl)methyl)-7-oxo-4,6-diazaspiro[2.4]hept-4-en-5-yl)-3-methylphenyl)-2-naphthonitrile]	~38.9 nM	~7.24 nM	105%	18.6 nM	> 10000 nM	10.7 nM	49 nM
COc1ccc2cc(-c3ccc(C4=NC5(CC5)C(=O)N4CC4CN(C(=O)C5CC5)C4)c(F)c3)ccc2c1 [compound 351, 6-((1-(cyclopropanecarbonyl)azetidin-3-yl)methyl)-5-(2-fluoro-4-(6-methoxynaphthalen-2-yl)phenyl)-4,6-diazaspiro[2.4]hept-4-en-7-one]	61.7 nM	28.2 nM	95%	74.1 nM	8510 nM	13.8 nM	57.5 nM
O=C(C1CC1)N1CC(CN2C(=O)C3(CC3)N=C2c2ccc(-c3nc4ccc(Cl)cc4s3)cc2F)C1 [compound 274, 5-(4-(6-chlorobenzo[d]thiazol-2-yl)-2-fluorophenyl)-6-((1-(cyclopropanecarbonyl)azetidin-3-yl)methyl)-4,6-diazaspiro[2.4]hept-4-en-7-one]	100 nM	~24 nM	101%	50.1 nM	7240 nM	46.8 nM	339 nM
CC1(C(=O)N2CC(CN3C(=O)C4(CC4)N=C3c3ccc(-c4ccc5cc(F)ccc5c4)cc3F)C2)CC1 [compound 359, 5-(2-fluoro-4-(6-fluoronaphthalen-2-yl)phenyl)-6-((1-(1-methylcyclopropanecarbonyl)azetidin-3-yl)methyl)-4,6-diazaspiro[2.4]hept-4-en-7-one]	41.7 nM	8.13 nM	95%	39.8 nM	> 6170 nM	8.32 nM	~79.4 nM
O=C(C1CC1)N1CC[C@@H](CN2C(=O)C3(CC3)N=C2c2ccc(-c3ccc4cc[nH]c4c3)cn2)C1 [compound 428, 6-{[(3R)-1-(Cyclopropylcarbonyl)pyrrolidin-3-yl]methyl}-5-[5-(1H-indol-6-yl)pyridin-2-yl]-4,6-diazaspiro[2.4]hept-4-en-7-one]	589 nM	~1100 nM	101%	138 nM	> 10000 nM	794 nM	2820 nM
Cn1cnc2cc(-c3ccc(C4=NC5(CC5)C(=O)N4CC4CN(C(=O)C5(C)CC5)C4)c(F)c3)ccc21 [compound 378, 5-(2-fluoro-4-(1-methyl-1H-benzo[d]imidazol-5-yl)phenyl)-6-((1-(1-methylcyclopropanecarbonyl)azetidin-3-yl)methyl)-4,6-diazaspiro[2.4]hept-4-en-7-one]	45.7 nM	~5.13 nM	100%	38.9 nM	> 10000 nM	10.5 nM	74.1 nM
O=C(C1CC1)N1CC[C@@H](CN2C(=O)C3(CCCC3)N=C2c2ccc(-c3ccc4cccnc4c3)cc2F)C1 [compound 875, (R)-3-((1-(cyclopropanecarbonyl)pyrrolidin-3-yl)methyl)-2-(2-fluoro-4-(quinolin-7-yl)phenyl)-1,3-diazaspiro[4.4]non-1-en-4-one]	28.8 nM	13.5 nM	104%	25.1 nM	> 10000 nM	10.5 nM	87.1 nM
